In US10030026B2, “Difluoroethylpyridine derivatives as NR2B NMDA receptor antagonists” (Rugen Holdings (Cayman) Limited, priority 2014, dated 2018) one finds IC50, immobility time and antidepressant activity data, which are given here for 15 molecules.

“And” between values parts separate entries of the source, which are not always exact repeats. Equal entries are not always repeated.

The target in one series is human NR1/NR2B (Homo sapiens (Human), UniProt Q13224). In words: NR2B antagonist activity, Fluo-4 calcium influx assay in HEK293 cells. The series is classed as cell-based. The settings on record: HEK293 cells stably expressing NR2B; glutamate 100 μM, glycine 50 μM. Here is the method: (§1) Activation of the NR2A or NR2B subtype of NMDA receptor with glutamate as an agonist and glycine co-agonist on these cells results in calcium influx, which can be monitored with fluorescent indicator Fluo-4.
(§2) For experiments, the cells were seeded onto poly-D-lysine-coated 96-well black plates with clear bottom (Corning) at a density of ˜50,000 cells/well. After overnight culture, the growth medium was removed from the wells and the cells were incubated at 37° C. for 60 min in Hanks buffer containing 4 μM fluo-4-AM (Invitrogen) and 0.1% bovine serum albumin (BSA). After dye-loading, the cells were washed three times with Hanks buffer and incubated for 10 min at room temperature with various concentrations of test compounds prepared in Hanks buffer with 0.1% BSA. The cell plates were placed onto FDSS μCell fluorescence reader (Hamamatsu). After 20 sec reading of background fluorescence, agonist glutamate at final 100 μM and co-agonist glycine at final 50 μM were added to the cells to activate the receptor, and the resulting fluorescence changes were recorded and quantified.

For the next series, the target named is human NR1/NR2A (Homo sapiens (Human), UniProt Q05586+Q12879). The series can be described thus: NR2A antagonist activity, Fluo-4 calcium influx assay in HEK293 cells. The series is classed as cell-based. Here is the method: as §1, §2
A further series concerns the target hERG channel (Homo sapiens (Human), UniProt Q12809). In words: hERG channel inhibition, whole cell patch clamp in HEK293 cells. Format: cell-based. As to conditions: hERG stably expressed in HEK293 cells. On the technique in general: The hERG channel carries a current that helps repolarise heart muscle cells.
A further series has as its system Male mice (strain NLMN). The series can be described thus: Forced swim test. The series is classed as in vivo. The method, then:
Mice that are forced to swim in a situation from which they cannot escape, rapidly become immobile. Drugs with antidepressant activity, such as imipramine, reduce the amount of time spent in the immobile state. […] All animals were housed in a temperature (22-24° C.) and humidity (50-60%) controlled environment with free access to food and water on a 12-hour light-dark cycle. Test compounds were dissolved in 0.5% dimethylsulfoxide, 4% hydroxypropyl-b-cyclodextrin water to generate the appropriate dosing solution. Drugs were administered by intraperitoneal injection at a dose volume of 10 mL/kg. Testing was initiated 20-60 minutes after dosing. […] Mice were placed in a white plastic cylinder 20 cm high with a diameter of 21 cm containing 10 cm of water at 25±2° C. The mice were videotaped for 6 minutes, and the last 4 minutes of video were analyzed by a blinded observer off-line. The observer judged the animal to be immobile when it ceased all activity (struggling, swimming, jumping etc.) and floated passively atop the water. The amount of time each animal spent in the immobile state was recorded and used for statistical analysis of compound effect. Group differences were evaluated by student's t-test or one-way ANOVA followed by post-hoc Dunnett's test.

For the next series, the target named is CYP2D6 (Homo sapiens (Human), UniProt P10635). In words: CYP P450 enzyme inhibition in pooled human liver microsome. (Liver microsomes are a subcellular fraction often used to study metabolism.)

Usually IC50 stands for the point on the concentration scale where inhibition reaches its midpoint.

Sequence of human NR1/NR2B (Q13224 27-1484, other chains not shown): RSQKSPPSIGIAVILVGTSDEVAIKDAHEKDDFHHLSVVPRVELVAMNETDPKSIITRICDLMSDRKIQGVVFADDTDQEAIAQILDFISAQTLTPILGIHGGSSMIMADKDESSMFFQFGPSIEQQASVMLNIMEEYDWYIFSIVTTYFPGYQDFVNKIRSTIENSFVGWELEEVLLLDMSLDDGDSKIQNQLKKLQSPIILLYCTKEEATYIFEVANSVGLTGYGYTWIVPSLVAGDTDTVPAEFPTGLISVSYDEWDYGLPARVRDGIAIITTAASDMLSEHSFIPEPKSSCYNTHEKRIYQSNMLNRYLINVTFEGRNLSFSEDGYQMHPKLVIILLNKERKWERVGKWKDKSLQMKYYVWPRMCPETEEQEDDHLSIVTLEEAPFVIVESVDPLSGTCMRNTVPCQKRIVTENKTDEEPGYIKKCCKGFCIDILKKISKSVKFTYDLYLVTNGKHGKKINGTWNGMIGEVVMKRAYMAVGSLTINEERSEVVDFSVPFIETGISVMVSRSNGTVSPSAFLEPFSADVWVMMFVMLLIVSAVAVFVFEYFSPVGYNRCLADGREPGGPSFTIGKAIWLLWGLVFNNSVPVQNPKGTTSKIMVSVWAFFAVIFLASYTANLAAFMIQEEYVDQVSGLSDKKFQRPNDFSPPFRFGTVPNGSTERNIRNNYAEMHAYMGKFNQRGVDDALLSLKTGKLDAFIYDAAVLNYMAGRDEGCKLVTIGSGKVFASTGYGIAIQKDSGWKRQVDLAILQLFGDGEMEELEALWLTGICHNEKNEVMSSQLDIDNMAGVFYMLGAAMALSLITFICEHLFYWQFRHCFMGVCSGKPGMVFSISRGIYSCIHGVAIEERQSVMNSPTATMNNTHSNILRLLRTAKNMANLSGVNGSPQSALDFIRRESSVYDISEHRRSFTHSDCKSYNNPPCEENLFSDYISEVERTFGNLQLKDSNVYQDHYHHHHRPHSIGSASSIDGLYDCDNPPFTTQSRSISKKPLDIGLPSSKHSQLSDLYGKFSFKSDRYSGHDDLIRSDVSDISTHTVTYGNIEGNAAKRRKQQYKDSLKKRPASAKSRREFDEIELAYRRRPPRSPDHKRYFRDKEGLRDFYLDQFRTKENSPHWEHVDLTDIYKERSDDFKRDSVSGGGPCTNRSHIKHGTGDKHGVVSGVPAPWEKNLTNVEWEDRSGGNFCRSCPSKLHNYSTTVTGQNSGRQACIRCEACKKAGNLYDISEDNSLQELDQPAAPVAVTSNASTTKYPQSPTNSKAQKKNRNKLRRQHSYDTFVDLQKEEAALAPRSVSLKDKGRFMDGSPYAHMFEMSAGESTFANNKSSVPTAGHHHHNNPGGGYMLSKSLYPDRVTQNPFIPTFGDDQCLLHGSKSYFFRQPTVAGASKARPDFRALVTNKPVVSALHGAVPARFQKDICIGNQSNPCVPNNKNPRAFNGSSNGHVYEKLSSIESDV
Sequence of human NR1/NR2A (Q12879 23-1464, other chains not shown): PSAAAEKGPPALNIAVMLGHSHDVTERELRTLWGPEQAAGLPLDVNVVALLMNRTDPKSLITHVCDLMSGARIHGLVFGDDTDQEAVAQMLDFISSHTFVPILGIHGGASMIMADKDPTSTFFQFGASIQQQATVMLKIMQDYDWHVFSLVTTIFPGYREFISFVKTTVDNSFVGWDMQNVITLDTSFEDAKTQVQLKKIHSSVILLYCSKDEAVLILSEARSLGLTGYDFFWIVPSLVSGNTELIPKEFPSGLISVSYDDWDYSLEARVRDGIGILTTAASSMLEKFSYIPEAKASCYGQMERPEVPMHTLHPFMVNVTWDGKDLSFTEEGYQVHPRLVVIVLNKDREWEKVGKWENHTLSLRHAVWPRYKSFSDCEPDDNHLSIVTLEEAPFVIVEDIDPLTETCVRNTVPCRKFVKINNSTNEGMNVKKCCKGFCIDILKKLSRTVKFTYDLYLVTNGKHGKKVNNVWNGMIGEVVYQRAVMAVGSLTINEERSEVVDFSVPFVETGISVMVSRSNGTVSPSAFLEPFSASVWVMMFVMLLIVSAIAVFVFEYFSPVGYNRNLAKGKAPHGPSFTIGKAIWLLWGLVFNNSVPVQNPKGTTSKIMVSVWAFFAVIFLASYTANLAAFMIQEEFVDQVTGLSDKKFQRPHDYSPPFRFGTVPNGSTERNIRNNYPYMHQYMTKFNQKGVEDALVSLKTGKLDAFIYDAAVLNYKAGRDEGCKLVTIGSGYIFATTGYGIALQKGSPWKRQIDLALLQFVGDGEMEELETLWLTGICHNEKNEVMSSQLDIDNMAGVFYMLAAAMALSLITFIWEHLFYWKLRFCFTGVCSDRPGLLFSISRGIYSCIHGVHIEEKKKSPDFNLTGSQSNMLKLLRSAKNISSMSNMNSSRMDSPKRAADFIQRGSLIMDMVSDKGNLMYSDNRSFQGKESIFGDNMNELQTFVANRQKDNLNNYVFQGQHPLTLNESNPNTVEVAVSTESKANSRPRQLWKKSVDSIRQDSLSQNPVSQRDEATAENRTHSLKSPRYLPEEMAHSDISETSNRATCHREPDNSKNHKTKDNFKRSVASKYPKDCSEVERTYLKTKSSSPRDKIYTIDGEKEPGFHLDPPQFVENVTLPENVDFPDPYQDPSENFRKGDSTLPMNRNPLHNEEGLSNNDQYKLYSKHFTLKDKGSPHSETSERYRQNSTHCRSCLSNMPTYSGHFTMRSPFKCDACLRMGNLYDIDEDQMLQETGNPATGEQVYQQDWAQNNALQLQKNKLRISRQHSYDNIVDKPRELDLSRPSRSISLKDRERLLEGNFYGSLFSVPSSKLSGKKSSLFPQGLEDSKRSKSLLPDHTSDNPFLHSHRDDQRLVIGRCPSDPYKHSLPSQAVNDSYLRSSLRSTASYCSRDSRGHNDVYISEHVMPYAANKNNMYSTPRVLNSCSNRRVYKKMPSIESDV
Sequence of hERG channel (Q12809 whole entry): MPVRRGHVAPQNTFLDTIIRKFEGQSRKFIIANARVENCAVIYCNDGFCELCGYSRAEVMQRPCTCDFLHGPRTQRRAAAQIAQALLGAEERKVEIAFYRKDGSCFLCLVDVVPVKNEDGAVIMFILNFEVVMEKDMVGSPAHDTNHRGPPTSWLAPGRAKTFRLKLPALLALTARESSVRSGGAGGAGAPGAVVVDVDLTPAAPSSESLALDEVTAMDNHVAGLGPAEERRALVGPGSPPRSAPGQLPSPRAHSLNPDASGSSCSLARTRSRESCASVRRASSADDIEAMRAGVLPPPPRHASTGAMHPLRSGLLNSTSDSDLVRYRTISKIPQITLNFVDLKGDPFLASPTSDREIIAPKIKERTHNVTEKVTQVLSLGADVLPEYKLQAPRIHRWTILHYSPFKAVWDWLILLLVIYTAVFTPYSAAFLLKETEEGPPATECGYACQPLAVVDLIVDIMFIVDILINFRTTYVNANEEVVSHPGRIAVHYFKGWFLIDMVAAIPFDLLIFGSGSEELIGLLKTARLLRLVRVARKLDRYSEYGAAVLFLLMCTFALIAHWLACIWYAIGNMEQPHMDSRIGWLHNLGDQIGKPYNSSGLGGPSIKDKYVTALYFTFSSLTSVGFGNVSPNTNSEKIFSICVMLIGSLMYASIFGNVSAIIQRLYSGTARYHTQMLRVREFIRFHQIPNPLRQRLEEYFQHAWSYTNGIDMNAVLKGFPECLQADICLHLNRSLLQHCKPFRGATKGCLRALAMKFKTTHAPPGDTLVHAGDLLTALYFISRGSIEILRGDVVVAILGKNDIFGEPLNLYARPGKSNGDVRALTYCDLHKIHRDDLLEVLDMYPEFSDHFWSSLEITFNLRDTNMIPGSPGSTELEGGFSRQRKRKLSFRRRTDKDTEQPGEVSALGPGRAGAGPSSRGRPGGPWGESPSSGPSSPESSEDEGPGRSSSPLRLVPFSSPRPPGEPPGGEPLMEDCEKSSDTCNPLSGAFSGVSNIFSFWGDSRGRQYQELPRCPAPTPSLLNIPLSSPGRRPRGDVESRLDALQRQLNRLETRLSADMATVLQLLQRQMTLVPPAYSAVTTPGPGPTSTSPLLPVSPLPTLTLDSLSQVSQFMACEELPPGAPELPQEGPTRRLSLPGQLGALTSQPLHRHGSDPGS
Sequence of CYP2D6 (P10635 whole entry): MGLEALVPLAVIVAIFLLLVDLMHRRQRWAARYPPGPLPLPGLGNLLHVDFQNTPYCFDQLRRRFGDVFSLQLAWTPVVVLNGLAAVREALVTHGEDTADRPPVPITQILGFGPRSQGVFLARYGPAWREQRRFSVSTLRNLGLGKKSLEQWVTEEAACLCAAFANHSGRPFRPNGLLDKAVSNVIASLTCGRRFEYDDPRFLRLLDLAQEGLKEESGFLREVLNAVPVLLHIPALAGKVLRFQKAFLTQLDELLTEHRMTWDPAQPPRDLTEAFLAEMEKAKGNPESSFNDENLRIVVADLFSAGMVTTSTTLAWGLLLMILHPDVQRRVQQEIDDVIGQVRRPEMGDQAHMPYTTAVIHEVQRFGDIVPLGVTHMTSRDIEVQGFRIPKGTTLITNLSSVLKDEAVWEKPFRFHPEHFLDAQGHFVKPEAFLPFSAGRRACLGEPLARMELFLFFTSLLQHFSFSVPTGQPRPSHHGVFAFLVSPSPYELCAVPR
Experimental for CYP2D6: Those CYP isoforms and their corresponding probe substrates are as follows: CYP1A2 (phenacetin, 30 μM), CYP2C9 (tolutamide, 100 μM), CYP2C19 (S-mephenytoin, 40 μM), CYP2D6 (dextromethorphan, 5 μM) and CYP3A4 (midazolam, 1 μM). All probe substrates were used at concentrations near or below their Kms. For experiment, a reaction mixture of test compound at 10 uM or in serial dilution, CYP probe substrate described above and 0.2 mg/mL pooled HLM in phosphate buffer, pH 7.4 in a final volume of 200 μL was pre-incubated at 37° C. for 10 minutes in triplicate. The reaction was initiated by addition of NADPH at final concentration of 1 mM. […] The samples were then centrifuged at 13,000 rpm and the supernatants were injected to LC-MS/MS (Agilent Technologies) to quantify the concentration of the specific metabolites of the probe substrates formed by individual CYP450 isoforms. The inhibition ratio is calculated as: (Mt−M0)/Mwater×100% • in which Mt and M0 represent the concentrations of the specific probe substrate metabolite, which was formed by individual CYP450 isoform, at the beginning and end of the reaction in the presence of test compound; while Mwater represents the concentration of the specific metabolite at the end of the reaction in the absence of test compound. […]
Experimental for hERG channel: The assay was performed on hERG channel stably expressed in HEK293 cells. The cells were cultured at 37° C. in a humidified CO2 incubator in the growth medium consisting of DMEM, 10% fetal bovine serum and antibiotics. Prior to the assay, the cells were seeded onto a 12 mm PDL-coated glass coverslip and cultured in a 35 mm Petri dish. After 16 to 40 hr culture, the cover slip was transferred into the chamber of OctaFlow perfusion system (ALA Instrument) and under a constant flow of extracellular solution (140 mM NaCl, 4 M KCl, 1 mM MgCl2, 1 mM CaCl2, 10 mM HEPES, 10 mM D-glucose, pH 7.35, osmolarity 290). Whole cell patch clamping was performed with a glass micropipette filled with intracellular solution (120 mM KCl, 1.75 mM MgCl2, 10 mM HEPES, 10 mM EGTA, and 4 mM ATP-K2, PH 7.2, osmolarity 300). Giga-seal was maintained during the test. The voltage control and current measurement were carried out using Axon amplifier 700B, Digidata 1440A and CLAMPEX10 software (Molecular Devices). Whole-cell hERG currents were recorded following the Petroski protocol: the cell was held at −80 mV, and the voltage step jumped from −80 to 30 mV and stay for 2 sec with a 20 ms prepulse at −40 mV. After depolarization, the voltage was decreased to −40 mV and stay for 2 sec, and returned back to −80 mV. Test compound was applied by quartz capillary tubes tip (200 μm inner diameter), and the flow rate was controlled at 2-3 ml/min with OctaFlow perfusion system. Different concentrations of the compound were applied to the cells for 5 min and the hERG current was measured three times before, during and after compound treatment. The data were analyzed using Clampfit 10 software (Molecular Devices).

As to `FC(F)(CN1CCC(Nc2ncnc3[nH]ncc23)CC1)c1ccccn1` [C-1, N-(1-(2,2-difluoro-2-(pyridin-2-yl)ethyl)piperidin-4-yl)-1H-pyrazolo[3,4-d]pyrimidin-4-amine], the IC50 on human NR1/NR2B was 178 nM; at human NR1/NR2A, above 10000 nM.
Turning to `Cc1n[nH]c2ncnc(NC3CCN(CC(F)(F)c4ccc(C(F)(F)F)cn4)CC3)c12` [C-33, N-(1-(2,2-difluoro-2-(5-(trifluoromethyl)pyridin-2-yl)ethyl)piperidin-4-yl)-3-methyl-1H-pyrazolo[3,4-d]pyrimidin-4-amine], the half-maximal inhibitory concentration (IC50) on hERG channel was above 30000 nM; on human NR1/NR2B, 110 nM and 89 nM; on human NR1/NR2A, above 10000 nM.
Consider `FC(F)(F)c1ccc(C(F)(F)CN2CCC(Nc3ncnc4[nH]ncc34)CC2)cn1` [C-127, N-(1-(2,2-difluoro-2-(6-(trifluoromethyl)pyridin-3-yl)ethyl)piperidin-4-yl)-1H-pyrazolo[3,4-d]pyrimidin-4-amine], for which the values for the IC50 at hERG channel and at human NR1/NR2B were 23000 nM and 38 nM, respectively.
As for `FC(F)(CN1CCC(Nc2ncnc3[nH]ncc23)CC1)c1ccc(Cl)cn1` [C-3], the half-maximal inhibitory concentration (IC50) is 26 nM at human NR1/NR2B and above 10000 nM on human NR1/NR2A.
As to `Fc1cc(C(F)(F)F)cnc1C(F)(F)CN1CCC(Nc2ncnc3[nH]ncc23)CC1` [C-18, N-(1-(2,2-difluoro-2-(3-fluoro-5-(trifluoromethyl)pyridin-2-yl)-ethyl)piperidin-4-yl)-1H-pyrazolo[3,4-d]pyrimidin-4-amine], the IC50 was 59 nM at human NR1/NR2B and above 10000 nM on human NR1/NR2A. The immobility time in the series on Male mice (strain NLMN) (10 mg/kg, 20 minutes after IP dosing, vehicle group 175±14, p<0.01) came out at 97 ± 16 s.
For the molecule `Fc1cnc(C(F)(F)CN2CCC(Nc3ncnc4[nH]ncc34)CC2)c(F)c1` [C-15, N-(1-(2-(3,5-difluoropyridin-2-yl)-2,2-difluoroethyl)piperidin-4-yl)-1H-pyrazolo[3,4-d]-pyrimidin-4-amine], the half-inhibitory concentration (IC50) on human NR1/NR2B was 93 nM; at human NR1/NR2A, above 10000 nM.
The matching figures for `FCc1ccc(C(F)(F)CN2CCC(Nc3ncnc4[nH]ncc34)CC2)nc1` [C-7]: 43 nM and above 10000 nM.
Take `FC(F)c1ccc(C(F)(F)CN2CCC(Nc3ncnc4[nH]ncc34)CC2)nc1` [C-6]: the IC50 on human NR1/NR2B is 34 nM; on human NR1/NR2A, above 10000 nM.
In the case of `CN(C)CCCN1c2ccccc2CCc2ccccc21` [imipramine, reference compound], in the series on Male mice (strain NLMN) (positive control, 32 mg/kg, IP), the antidepressant activity entry is given as “showed the expected antidepressant activity”.
As to `Cc1cnc(C(F)(F)CN2CCC(Nc3ncnc4[nH]ncc34)CC2)c(F)c1` [C-17, N-(1-(2,2-difluoro-2-(3-fluoro-5-methylpyridin-2-yl)ethyl)piperidin-4-yl)-1H-pyrazolo[3,4-d]pyrimidin-4-amine], the IC50 is 48 nM at human NR1/NR2B and above 10000 nM on human NR1/NR2A.
For the molecule `FC(F)(F)c1ccc(C(F)(F)CN2CCC(Nc3ncnc4[nH]ncc34)CC2)nc1` [C-5, N-(1-(2,2-difluoro-2-(5-(trifluoromethyl)pyridin-2-yl)ethyl)piperidin-4-yl)-1H-pyrazolo[3,4-d]pyrimidin-4-amine], the IC50 against hERG channel is 31000 nM; on human NR1/NR2A, above 10000 nM. The immobility time amounted to 111 ± 18.3 s in the series with Male mice (strain NLMN) (3 mg/kg IP, vehicle group 188±6.6, p<0.05) and 89 ± 14.4 s in the series with Male mice (strain NLMN) (10 mg/kg IP, vehicle group 188±6.6, p<0.01).
Regarding `FC(F)Oc1ccc(C(F)(F)CN2CCC(Nc3ncnc4[nH]ncc34)CC2)nc1` [C-12], the IC50 at human NR1/NR2B was 23 nM; on human NR1/NR2A, above 10000 nM.
On to `Cc1ccc(C(F)(F)CN2CCC(Nc3ncnc4[nH]ncc34)CC2)nc1` [C-4, N-(1-(2,2-difluoro-2-(5-methylpyridin-2-yl)ethyl)piperidin-4-yl)-1H-pyrazolo[3,4-d]pyrimidin-4-amine], for which the results for the IC50 at human NR1/NR2B and at human NR1/NR2A were 52 nM and above 10000 nM, respectively.
Turning to `FC(F)(CN1CCC(Nc2ncnc3[nH]ncc23)CC1)c1ncc(Cl)cc1Cl` [C-24, N-(1-(2-(3,5-dichloropyridin-2-yl)-2,2-difluoroethyl)piperidin-4-yl)-1H-pyrazolo[3,4-d]pyrimidin-4-amine], the IC50 at human NR1/NR2B is 52 nM; at human NR1/NR2A, above 10000 nM.
For the molecule `Fc1cc(Cl)cnc1C(F)(F)CN1CCC(Nc2ncnc3[nH]ncc23)CC1` [C-16, N-(1-(2-(5-chloro-3-fluoropyridin-2-yl)-2,2-difluoroethyl)piperidin-4-yl)-1H-pyrazolo[3,4-d]pyrimidin-4-amine], the IC50 against hERG channel is 13000 nM; at human NR1/NR2B, 30 nM; on CYP2D6 it was 10000 nM; on human NR1/NR2A, above 10000 nM.
